Experimental findings from ChEMBL document CHEMBL4616634, “4β-Hydroxywithanolide E from Goldenberry (Whole Fruits of Physalis peruviana L.) as a Promising Agent against Chronic Obstructive Pulmonary Disease” (J Nat Prod, 2020) are described below.

The target in data set [1] is T1, Nuclear factor erythroid 2-related factor 2 (Homo sapiens) (UniProt Q16236).
T1 sequence (whole entry): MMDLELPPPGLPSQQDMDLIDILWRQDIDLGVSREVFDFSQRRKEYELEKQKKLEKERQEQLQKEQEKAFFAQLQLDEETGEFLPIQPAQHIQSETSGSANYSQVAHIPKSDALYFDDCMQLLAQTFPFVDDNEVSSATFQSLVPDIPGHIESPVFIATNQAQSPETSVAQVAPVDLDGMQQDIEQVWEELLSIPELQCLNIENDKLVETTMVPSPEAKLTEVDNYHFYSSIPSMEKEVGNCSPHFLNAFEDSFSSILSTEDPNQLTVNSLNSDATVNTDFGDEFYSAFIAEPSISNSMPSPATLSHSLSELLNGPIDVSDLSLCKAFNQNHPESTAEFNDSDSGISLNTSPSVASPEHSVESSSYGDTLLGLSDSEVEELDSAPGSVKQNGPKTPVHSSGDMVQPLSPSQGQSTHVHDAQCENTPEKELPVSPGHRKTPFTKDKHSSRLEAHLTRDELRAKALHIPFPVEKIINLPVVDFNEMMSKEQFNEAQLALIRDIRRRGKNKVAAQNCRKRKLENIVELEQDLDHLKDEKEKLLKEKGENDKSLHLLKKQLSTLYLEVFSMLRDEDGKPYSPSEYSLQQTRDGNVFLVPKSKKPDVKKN
Briefly: Activation of Nrf2 in human BEAS2B cells assessed as increase in Nrf2 protein expression at 1 uM incubated for 24 hrs by immunoblot analysis. The format is cell-based. For orientation: In western blotting, separated proteins are transferred to a membrane and probed.

The target in data set [2] is Keap1/Nrf2 (Homo sapiens) (UniProt Q16236+Q14145). Briefly: Inhibition of Nrf2-KEAP1 (unknown origin) transfected in BEAS2B cells assessed as decrease in ratio of Nrf2 to Keap1 at 5 uM incubated for 24 hrs by immunoblot analysis. The format is cell-based.
Data set [3] deals with Mus musculus. The data set can be described thus: Antioxidant Activity in C57BL/6 mouse model of CS-induced pulmonary injury assessed as increase in SOD level in serum at 2 to 4 mg/kg, ip for 5 days. The data set is classed as functional, organism-based.
Data set [4] has as its target T1, Nuclear factor erythroid 2-related factor 2 (Homo sapiens). Briefly: Activation of Nrf2 in human BEAS2B cells assessed as increase in NQO1 protein expression incubated for 12 hrs by immunoblot analysis. The format is cell-based.
Data set [5] shares this target. The data set can be described thus: Activation of Nrf2 in human BEAS2B cells assessed as increase in Nrf2 accumulation in nucleus at 1 uM incubated for 8 hrs by immunoblot analysis. The format is cell-based.
Data set [6] has the same target. The data set can be described thus: Activation of Nrf2 in human BEAS2B cells assessed as increase in GCLM mRNA expression at 0.5 to 2 uM incubated for 24 hrs by qRT-PCR analysis. The format is cell-based.
For data set [7], the system named is RAW264.7. The data set can be described thus: Inhibition of LPS-induced COX2 protein expression in mouse RAW264.7 cells at 0.5 to 4 uM preincubated for 1 hr followed by LPS-stimulation and measured after 16 hrs by immunoblot analysis. The data set is classed as functional, cell-based.
The species named for the next data set is Danio rerio. Briefly: Inhibition of LPS-induced ROS generation in AB zebra fish oxidative damage model incubated for 24 hrs by DCFH-DA staining based fluorescence assay. The format is functional, organism-based.
Data set [8] deals with T1, Nuclear factor erythroid 2-related factor 2 (Homo sapiens). Briefly: Activation of Nrf2 in human BEAS2B cells assessed as increase in Keap1 mRNA expression at 0.5 to 2 uM incubated for 24 hrs by qRT-PCR analysis. The format is cell-based. On the technique in general: Real-time PCR tracks product formation cycle by cycle.
A further data set relates to MDA-MB-231. The data set can be described thus: Cytotoxicity against human MDA-MB-231 cells assessed as decrease in cell viability at 0.13 to 10 uM after 24 to 48 hrs by MTT assay. The data set is classed as cell-based. The note with it: mda-mb-231, 10 µM. On the technique in general: Tetrazolium assays rely on reduction of a dye to a coloured formazan, in cell work by metabolically active cells.

Data set [9] addresses T1, Nuclear factor erythroid 2-related factor 2 (Homo sapiens). Briefly: Activation of Nrf2 in human BEAS2B cells assessed as increase in Nrf2 mRNA expression at 0.5 to 2 uM incubated for 24 hrs by qRT-PCR analysis. The format is cell-based.
Data set [10] shares this target. The data set can be described thus: Activation of Nrf2 in human MDA-MB-231 cells assessed as increase in ARE luciferase activity at 2 uM incubated for 16 hrs by luciferase reporter gene assay. The format is cell-based.
For data set [11] the target is unchanged. The data set can be described thus: Activation of Nrf2 in human BEAS2B cells assessed as increase in NQO1 mRNA expression at 0.5 to 2 uM incubated for 24 hrs by qRT-PCR analysis. The format is cell-based.
Data set [12] shares this target. The data set can be described thus: Activation of Nrf2 in human BEAS2B cells assessed as increase in Nrf2 protein level incubated for 12 hrs by immunoblot analysis. The data set is classed as cell-based.
Data set [13] has as its system RAW264.7. Briefly: Inhibition of LPS-induced NFkappaB activation in mouse RAW264.7 cells assessed as decrease in phosphorylated NFkappaB p65 at 0.5 to 4 uM pre-incubated for 1 hr followed by LPS-stimulation and measured after 2 hrs by immunoblot analysis. The format is cell-based.
The target in data set [14] is T1, Nuclear factor erythroid 2-related factor 2 (Homo sapiens). Briefly: Activation of Nrf2 in human MDA-MB-231 cells assessed as increase in ARE luciferase activity at > 4 uM incubated for 16 hrs by luciferase reporter gene assay. The format is cell-based.
Data set [15] relates to Mus musculus. The data set can be described thus: Antiinflammatory activity in C57BL/6 mouse model of CS-induced pulmonary injury assessed as reduction in 8-oxo-dG in lungs at 2 to 4 mg/kg, ip for 5 days by ELISA. The format is functional, organism-based.
Data set [16] concerns the target T2, Nuclear factor erythroid 2-related factor 2 (Mus musculus) (UniProt Q60795).
T2 sequence (whole entry): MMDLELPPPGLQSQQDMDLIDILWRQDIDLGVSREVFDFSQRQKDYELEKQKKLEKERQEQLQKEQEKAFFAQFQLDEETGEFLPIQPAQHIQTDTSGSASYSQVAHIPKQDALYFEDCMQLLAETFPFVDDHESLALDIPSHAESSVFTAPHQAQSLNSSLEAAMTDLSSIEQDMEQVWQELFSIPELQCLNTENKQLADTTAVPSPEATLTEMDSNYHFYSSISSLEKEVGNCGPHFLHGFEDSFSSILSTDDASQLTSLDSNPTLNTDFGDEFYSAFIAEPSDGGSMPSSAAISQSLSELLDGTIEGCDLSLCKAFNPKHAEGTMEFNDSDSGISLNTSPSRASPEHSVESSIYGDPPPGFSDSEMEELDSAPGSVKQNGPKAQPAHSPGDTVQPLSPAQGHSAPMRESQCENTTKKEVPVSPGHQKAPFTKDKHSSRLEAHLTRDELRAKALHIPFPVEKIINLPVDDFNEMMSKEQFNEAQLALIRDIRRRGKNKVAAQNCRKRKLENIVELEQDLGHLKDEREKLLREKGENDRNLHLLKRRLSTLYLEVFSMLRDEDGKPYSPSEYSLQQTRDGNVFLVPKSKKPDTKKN
Briefly: Activation of Nrf2 in mouse Hepa1c1c7 cells assessed as increase in quinone reductase activity at 3.12 uM incubated for 24 hrs by MTT based assay. The data set is classed as cell-based.

Data set [17] deals with Mus musculus. Briefly: Antiinflammatory activity in C57BL/6 mouse model of CS-induced pulmonary injury assessed as reduction in goblet cell hyperplasia in perivascular areas in lungs at 2 to 4 mg/kg, ip for 5 days by hematoxylin and eosin staining based fluorescence microscopic analysis. The data set is classed as functional, organism-based.
Data set [18] deals with RAW264.7. Briefly: Inhibition of LPS-induced iNOS mRNA expression in mouse RAW264.7 cells at 0.5 to 4 uM preincubated for 1 hr followed by LPS-stimulation and measured after 6 hrs by qRT-PCR analysis. The data set is classed as functional, cell-based.

The structures appear in SMILES notation. Activity calls are given as the source filed them. No cut-off for these calls is given here.

Keap1/Nrf2 (Homo sapiens), sequence (Q14145 whole entry, looked up, one chain of several): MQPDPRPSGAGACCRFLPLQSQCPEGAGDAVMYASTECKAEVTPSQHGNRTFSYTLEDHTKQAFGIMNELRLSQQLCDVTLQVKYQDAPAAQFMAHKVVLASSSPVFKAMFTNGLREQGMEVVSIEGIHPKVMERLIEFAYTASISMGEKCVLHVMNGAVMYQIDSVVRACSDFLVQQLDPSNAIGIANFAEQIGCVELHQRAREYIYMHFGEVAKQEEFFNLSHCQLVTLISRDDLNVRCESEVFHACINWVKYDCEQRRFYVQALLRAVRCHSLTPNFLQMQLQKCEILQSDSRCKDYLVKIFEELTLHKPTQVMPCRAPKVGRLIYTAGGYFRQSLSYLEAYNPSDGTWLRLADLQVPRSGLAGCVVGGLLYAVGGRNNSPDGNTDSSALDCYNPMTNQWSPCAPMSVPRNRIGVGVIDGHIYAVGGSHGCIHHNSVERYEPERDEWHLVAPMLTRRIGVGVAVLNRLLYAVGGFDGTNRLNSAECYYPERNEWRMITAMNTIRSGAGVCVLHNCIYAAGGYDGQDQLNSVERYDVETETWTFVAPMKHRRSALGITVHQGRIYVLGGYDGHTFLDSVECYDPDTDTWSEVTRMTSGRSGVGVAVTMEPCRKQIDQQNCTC

Regarding `CC1=C(C)C(=O)O[C@H]([C@](C)(O)[C@]2(O)CC[C@@]3(O)[C@@H]4C[C@H]5O[C@]56[C@@H](O)C=CC(=O)[C@]6(C)[C@H]4CC[C@]23C)C1`, the result in data set [1], in data set [8] and in data set [14] was inactive. Besides, the inhibition entry (in [2]; in the data set with RAW264.7 [7]; in the data set with RAW264.7 [13]; with RAW264.7 [18]) was “Active” throughout. Further, the outcome (with Mus musculus [3]; in data set [5]; in data set [6]; in [9]; in [11]; in the data set on Mus musculus [15]) was Active. In addition, the outcome in the data set with Mus musculus [17] was Active. The Activity result in data set [4] is “Dose-dependent effect”; in the data set with MDA-MB-231, “Toxic”; in data set [12] it was “Dose-dependent effect”. The inhibition result in the data set filed under Danio rerio was “Dose-dependent effect”. The results for the fold change (FC) in data set [10] and in data set [16] were 8.5 and 2.58, respectively.
